# Test results published in US8895599B2, “Lipoprotein lipase-activating compositions comprising benzene derivates” (Otsuka Pharmaceutical Factory, Inc., priority 2008, dated 2014).
# Assays:
# [1] = Anti-obesity test using Zucker fatty rats; assay type: in vivo; conditions: 100 mg/kg oral, once a day over 4 weeks, relative to control group
# Text: Anti-Obesity Test Using Zucker Fatty Rats
# Zucker fatty rats are obese rats discovered by Zucker et al., in 1961 as mutants among 13 M rats, which are a hybrid between 13C and M rats. These rats (fa/fa) start to appear distinctly obese from normal broods around the age of 3 weeks. As they age, the weight difference between the fatty rats and normal rats increases. Zucker fatty rats are currently kept by a variety of organizations as simple obesity models, and are readily obtainable.
# This test was performed using this rat model to evaluate the anti-obesity action of the compounds of the invention. The preparation method of test samples and the test procedures are described below:
# The test samples were prepared in the same manner as in Test Example 2.
# Zucker fatty rats and lean rats (both from Charles River Japan) were purchased at the age of 5 weeks. They were divided into groups (10 rats per group) according to body weight when they reached 6 weeks old. After acclimatization, the administration of test samples was initiated when the rats reached 8 weeks old. Test samples were orally administered using an oral gavage so that the compounds of the invention contained in the test samples were given in an amount of 100 mg/kg body weight (test sample dosage: 5 ml/kg body weight). The test samples were administered once a day over 4 weeks at a specific time of day.
# As a control, a group of rats were administered with the same amount of 5% aqueous gum arabic solution (5 ml/kg body weight) instead of the test samples.
# The rats of all groups were weighed on the last day of administration. The average body weight of the rats of each test group was compared with the average body weight (standard weight) of the rats of the control group to obtain the weight variations (differences). The weight differences were expressed as percentages in relation to the standard weight. The values thus calculated are referred to as “weight change %”. When a weight difference is negative relative to the standard weight, weight change % is shown with “−” (minus).
# During the test period, the rats of the respective groups had free access to rat feed (“CRF-1”, manufactured by Oriental Yeast, Co., Ltd.) and water (tap water).
# [2] = Therapeutical effect on olive oil-induced triglyceride hyperlipidemia models; assay type: in vivo; conditions: once a day for one week, SD rats, 2 h after olive oil
# Protocol: Test of Therapeutical Effect on Olive Oil-Induced Triglyceride Hyperlipidemia Models
# To conduct this test, 6-week-old SD rats (purchased from Charles River Japan) were used.
# According to the body weight of the test rats when they were 5 weeks old, the test rats were divided into test groups and a control group with 6 rats per group.
# A predetermined amount of each compound prepared in the Examples was measured and placed in an agate mortar. While 5% aqueous gum arabic solution was gradually introduced to the mortar, the compound was uniformly ground and suspended. Test samples were prepared by further adding 5% aqueous gum arabic solution gradually. Subsequently, these test samples were subjected to ultrasonic washing for 10 minutes to homogenize. Test samples were prepared as and when necessary.
# The rats of the test groups were orally administered with the compounds of the invention such that rats received the compounds in an amount of 10, 30, or 100 mg/kg. The compounds of the invention were formulated as 5% gum arabic suspensions as described above.
# The rats of the control group were orally administered with 5% aqueous gum arabic solution (not containing the compounds of the invention) in an amount of 5 ml/kg body weight. Administration was conducted once a day continuously for one week at a specific time of day after the rats reached 6 weeks of age. This test was performed under non-fasting conditions (rats had free access to feed and water), and the rats were fasted after the final administration of the compounds or 5% aqueous gum arabic solution.
# Two hours after the final administration, olive oil was orally administered to the rats from both groups in an amount of 3 ml/kg body weight.
# Two hours after the olive oil administration, blood was collected from the abdominal aorta of the rats of the respective groups using a heparinized syringe. The plasma was centrifugally separated from the blood at a temperature of 4° C., and the triglyceride level of the plasma was measured. A Hitachi 7170 automatic analyzer was used as the measuring instrument. Using the values measured from the test groups and control group, the decrease (%) in plasma triglyceride level was calculated according to the following equation: Decrease (%) in plasma triglyceride concentration=(1−E/C)×100 wherein E represents the average plasma triglyceride level in each test group; and C represents the average plasma triglyceride level in the control group.
structure (smiles),measurement,setting,value
COc1cc(-c2cn3ccccc3n2)ccc1OCc1ccc(Cl)cc1 [Example 10],Weight Change (%),[1],−15%
same,Decrease in plasma triglyceride level (%),[2]; 10 mg/kg oral,48%
same,Decrease in plasma triglyceride level (%),[2]; 30 mg/kg oral,67%
same,Decrease in plasma triglyceride level (%),[2]; 100 mg/kg oral,74%
